Measured values reported in ChEMBL document CHEMBL4033665, “Synthesis and applications of benzohydroxamic acid-based histone deacetylase inhibitors” (Eur J Med Chem, 2017).

Assays:
Homo sapiens [1] = organism: Homo sapiens; assay: Selectivity index, ratio of IC50 for human HDAC2 to IC50 for human HDAC6
Histone deacetylase 7 = molecular target: T1, Histone deacetylase 7 (Homo sapiens, UniProt Q8WUI4); assay: Inhibition of human HDAC7 after 15 mins by trypsin-coupled fluorescence assay
T1 sequence (Q8WUI4 whole entry): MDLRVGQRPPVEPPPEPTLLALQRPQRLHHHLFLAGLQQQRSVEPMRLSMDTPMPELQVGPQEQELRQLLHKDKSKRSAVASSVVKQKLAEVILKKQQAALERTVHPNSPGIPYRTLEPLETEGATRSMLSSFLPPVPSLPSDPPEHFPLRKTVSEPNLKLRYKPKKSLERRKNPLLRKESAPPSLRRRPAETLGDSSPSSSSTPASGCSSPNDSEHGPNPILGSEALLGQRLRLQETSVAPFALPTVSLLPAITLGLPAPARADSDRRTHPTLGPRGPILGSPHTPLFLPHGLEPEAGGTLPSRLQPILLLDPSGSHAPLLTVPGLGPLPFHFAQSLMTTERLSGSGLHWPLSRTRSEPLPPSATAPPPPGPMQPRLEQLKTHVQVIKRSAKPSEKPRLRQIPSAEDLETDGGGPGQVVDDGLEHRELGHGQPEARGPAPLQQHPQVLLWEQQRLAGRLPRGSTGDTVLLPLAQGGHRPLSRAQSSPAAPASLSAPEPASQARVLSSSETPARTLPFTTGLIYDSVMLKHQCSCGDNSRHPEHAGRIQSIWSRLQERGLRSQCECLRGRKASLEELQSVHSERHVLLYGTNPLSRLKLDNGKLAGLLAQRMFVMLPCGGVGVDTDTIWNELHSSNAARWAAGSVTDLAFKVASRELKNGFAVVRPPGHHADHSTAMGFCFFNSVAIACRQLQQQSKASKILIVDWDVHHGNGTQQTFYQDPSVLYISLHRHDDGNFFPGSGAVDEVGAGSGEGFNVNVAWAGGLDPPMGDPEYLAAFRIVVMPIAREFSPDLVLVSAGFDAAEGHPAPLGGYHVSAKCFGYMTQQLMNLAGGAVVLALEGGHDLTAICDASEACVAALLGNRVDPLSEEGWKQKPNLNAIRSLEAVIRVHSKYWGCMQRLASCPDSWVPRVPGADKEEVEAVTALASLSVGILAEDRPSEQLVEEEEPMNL

Histone deacetylase 2 = Histone deacetylase 2 (Homo sapiens, UniProt Q92769); assay: Inhibition of human HDAC2 after 15 mins by trypsin-coupled fluorescence assay
Homo sapiens [2] = organism: Homo sapiens; assay: Selectivity index, ratio of IC50 for human HDAC8 to IC50 for human HDAC6
Histone deacetylase 1 = Histone deacetylase 1 (Homo sapiens, UniProt Q13547); assay: Inhibition of human HDAC1 after 15 mins by trypsin-coupled fluorescence assay
Histone deacetylase 8 = molecular target: T2, Histone deacetylase 8 (Homo sapiens, UniProt Q9BY41); assay: Inhibition of human HDAC8 after 15 mins by trypsin-coupled fluorescence assay
T2 sequence (Q9BY41 whole entry): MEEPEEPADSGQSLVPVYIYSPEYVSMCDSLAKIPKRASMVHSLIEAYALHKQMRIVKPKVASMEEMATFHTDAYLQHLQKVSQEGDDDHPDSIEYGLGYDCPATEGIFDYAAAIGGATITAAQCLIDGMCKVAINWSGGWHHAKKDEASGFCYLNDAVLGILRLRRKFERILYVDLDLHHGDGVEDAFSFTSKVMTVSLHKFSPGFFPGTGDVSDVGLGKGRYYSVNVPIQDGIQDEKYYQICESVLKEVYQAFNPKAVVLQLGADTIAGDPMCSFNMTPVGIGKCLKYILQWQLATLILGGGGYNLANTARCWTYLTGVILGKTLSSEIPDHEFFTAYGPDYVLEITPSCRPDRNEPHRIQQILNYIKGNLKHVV

Histone deacetylase 9 = Histone deacetylase 9 (Homo sapiens, UniProt Q9UKV0); assay: Inhibition of human HDAC9 after 15 mins by trypsin-coupled fluorescence assay
Histone deacetylase 5 = Histone deacetylase 5 (Homo sapiens, UniProt Q9UQL6); assay: Inhibition of human HDAC5 after 15 mins by trypsin-coupled fluorescence assay
Homo sapiens [3] = organism: Homo sapiens; assay: Selectivity index, ratio of IC50 for human HDAC5 to IC50 for human HDAC6
Homo sapiens [4] = organism: Homo sapiens; assay: Selectivity index, ratio of IC50 for human HDAC10 to IC50 for human HDAC6
Histone deacetylase 3 = Histone deacetylase 3 (Homo sapiens, UniProt O15379); assay: Inhibition of human HDAC3 after 15 mins by trypsin-coupled fluorescence assay
Homo sapiens [5] = organism: Homo sapiens; assay: Selectivity index, ratio of IC50 for human HDAC3 to IC50 for human HDAC6
Homo sapiens [6] = organism: Homo sapiens; assay: Selectivity index, ratio of IC50 for human HDAC7 to IC50 for human HDAC6
Homo sapiens [7] = organism: Homo sapiens; assay: Selectivity index, ratio of IC50 for human HDAC1 to IC50 for human HDAC6
Histone deacetylase 4 = Histone deacetylase 4 (Homo sapiens, UniProt P56524); assay: Inhibition of human HDAC4 after 15 mins by trypsin-coupled fluorescence assay
Homo sapiens [8] = organism: Homo sapiens; assay: Selectivity index, ratio of IC50 for human HDAC11 to IC50 for human HDAC6
Histone deacetylase 11 = molecular target: T3, Histone deacetylase 11 (Homo sapiens, UniProt Q96DB2); assay: Inhibition of human HDAC11 after 15 mins by trypsin-coupled fluorescence assay
T3 sequence (Q96DB2 whole entry): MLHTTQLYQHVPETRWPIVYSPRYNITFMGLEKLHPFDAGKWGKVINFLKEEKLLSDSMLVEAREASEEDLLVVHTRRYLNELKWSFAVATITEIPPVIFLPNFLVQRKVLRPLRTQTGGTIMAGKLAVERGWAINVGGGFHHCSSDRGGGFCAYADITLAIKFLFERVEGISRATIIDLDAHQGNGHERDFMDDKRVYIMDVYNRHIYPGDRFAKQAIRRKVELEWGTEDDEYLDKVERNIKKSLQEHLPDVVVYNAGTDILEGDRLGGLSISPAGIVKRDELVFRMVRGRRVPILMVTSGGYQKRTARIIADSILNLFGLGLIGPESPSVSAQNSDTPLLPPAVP

Sequence of Histone deacetylase 1 (Q13547 whole entry): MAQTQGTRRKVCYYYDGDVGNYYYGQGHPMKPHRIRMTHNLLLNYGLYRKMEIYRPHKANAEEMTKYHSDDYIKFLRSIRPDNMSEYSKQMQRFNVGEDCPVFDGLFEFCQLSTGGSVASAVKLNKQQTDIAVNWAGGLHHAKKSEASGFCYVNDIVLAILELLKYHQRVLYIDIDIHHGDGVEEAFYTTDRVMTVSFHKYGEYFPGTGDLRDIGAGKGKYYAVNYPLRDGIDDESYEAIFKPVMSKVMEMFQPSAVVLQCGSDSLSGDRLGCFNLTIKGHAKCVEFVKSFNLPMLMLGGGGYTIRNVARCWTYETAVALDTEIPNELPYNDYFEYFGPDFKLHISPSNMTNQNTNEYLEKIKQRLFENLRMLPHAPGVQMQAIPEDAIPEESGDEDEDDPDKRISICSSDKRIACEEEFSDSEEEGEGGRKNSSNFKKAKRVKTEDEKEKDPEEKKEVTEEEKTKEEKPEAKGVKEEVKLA
Sequence of Histone deacetylase 4 (P56524 whole entry): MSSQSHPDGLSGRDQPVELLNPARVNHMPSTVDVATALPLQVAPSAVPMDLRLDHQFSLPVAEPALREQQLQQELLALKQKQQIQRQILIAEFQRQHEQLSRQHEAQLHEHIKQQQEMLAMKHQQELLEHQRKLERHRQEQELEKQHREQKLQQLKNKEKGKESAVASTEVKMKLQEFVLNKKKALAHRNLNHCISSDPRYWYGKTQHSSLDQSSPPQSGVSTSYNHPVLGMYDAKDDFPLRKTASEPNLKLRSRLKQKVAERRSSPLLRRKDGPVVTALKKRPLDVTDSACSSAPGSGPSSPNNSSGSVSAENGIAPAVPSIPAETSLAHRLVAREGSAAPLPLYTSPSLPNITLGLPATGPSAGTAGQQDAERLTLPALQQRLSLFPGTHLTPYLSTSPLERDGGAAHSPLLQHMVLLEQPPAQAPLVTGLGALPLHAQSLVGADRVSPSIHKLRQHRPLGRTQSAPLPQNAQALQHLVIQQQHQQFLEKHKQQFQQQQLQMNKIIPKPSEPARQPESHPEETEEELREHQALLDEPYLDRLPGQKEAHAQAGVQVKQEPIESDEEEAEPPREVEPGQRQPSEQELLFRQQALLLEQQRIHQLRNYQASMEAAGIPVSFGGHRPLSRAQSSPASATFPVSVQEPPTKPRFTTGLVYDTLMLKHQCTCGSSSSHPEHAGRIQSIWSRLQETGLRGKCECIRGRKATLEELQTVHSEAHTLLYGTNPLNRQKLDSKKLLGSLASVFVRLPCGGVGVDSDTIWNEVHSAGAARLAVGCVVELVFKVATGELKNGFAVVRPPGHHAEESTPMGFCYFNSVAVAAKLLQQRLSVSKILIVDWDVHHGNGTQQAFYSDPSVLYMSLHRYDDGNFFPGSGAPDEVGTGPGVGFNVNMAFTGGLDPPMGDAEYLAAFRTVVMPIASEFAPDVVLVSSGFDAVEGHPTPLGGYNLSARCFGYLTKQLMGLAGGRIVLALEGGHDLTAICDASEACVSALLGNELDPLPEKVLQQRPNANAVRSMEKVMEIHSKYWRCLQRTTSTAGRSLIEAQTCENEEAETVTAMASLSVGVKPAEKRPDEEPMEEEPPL
Sequence of Histone deacetylase 3 (O15379 whole entry): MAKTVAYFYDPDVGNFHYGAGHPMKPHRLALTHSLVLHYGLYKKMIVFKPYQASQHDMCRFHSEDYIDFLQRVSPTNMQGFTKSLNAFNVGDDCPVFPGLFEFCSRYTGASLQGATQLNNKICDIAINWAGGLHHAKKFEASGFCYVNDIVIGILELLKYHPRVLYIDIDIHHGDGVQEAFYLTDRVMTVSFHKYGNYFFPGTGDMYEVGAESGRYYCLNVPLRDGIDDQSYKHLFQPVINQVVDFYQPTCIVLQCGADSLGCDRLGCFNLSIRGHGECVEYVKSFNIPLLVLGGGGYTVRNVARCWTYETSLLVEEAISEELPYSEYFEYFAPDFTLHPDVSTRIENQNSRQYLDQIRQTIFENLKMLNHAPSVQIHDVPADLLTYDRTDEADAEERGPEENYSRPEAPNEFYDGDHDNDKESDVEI
Sequence of Histone deacetylase 5 (Q9UQL6 whole entry): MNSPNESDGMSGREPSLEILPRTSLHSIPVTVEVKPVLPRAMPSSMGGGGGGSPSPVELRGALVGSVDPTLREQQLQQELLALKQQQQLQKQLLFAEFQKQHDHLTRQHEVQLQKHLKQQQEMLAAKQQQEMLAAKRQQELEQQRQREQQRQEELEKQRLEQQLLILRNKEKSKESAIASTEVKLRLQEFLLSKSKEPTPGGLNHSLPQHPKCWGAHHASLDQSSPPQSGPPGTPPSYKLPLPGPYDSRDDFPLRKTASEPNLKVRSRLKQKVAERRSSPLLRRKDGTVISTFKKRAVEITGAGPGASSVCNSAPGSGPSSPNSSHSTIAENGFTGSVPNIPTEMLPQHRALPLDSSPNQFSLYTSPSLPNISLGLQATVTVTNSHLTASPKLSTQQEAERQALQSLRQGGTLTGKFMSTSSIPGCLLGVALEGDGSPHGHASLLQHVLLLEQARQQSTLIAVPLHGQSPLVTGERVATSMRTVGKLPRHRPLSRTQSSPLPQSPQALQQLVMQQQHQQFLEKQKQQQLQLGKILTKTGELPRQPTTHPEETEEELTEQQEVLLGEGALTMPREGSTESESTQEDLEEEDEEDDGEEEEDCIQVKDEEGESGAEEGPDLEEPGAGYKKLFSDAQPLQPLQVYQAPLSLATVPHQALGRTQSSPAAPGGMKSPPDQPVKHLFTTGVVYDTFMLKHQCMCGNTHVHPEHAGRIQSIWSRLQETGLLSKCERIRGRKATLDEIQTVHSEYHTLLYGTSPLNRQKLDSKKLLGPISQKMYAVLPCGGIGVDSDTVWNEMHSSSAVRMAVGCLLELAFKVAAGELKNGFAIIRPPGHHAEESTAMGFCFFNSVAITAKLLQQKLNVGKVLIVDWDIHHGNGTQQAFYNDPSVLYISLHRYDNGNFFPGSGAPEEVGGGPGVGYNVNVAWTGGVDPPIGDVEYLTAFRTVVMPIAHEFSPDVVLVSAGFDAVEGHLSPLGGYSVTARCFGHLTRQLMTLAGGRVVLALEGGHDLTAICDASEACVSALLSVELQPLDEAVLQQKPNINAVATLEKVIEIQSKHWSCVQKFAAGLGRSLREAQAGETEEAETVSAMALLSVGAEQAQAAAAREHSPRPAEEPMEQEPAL
Sequence of Histone deacetylase 9 (Q9UKV0 whole entry): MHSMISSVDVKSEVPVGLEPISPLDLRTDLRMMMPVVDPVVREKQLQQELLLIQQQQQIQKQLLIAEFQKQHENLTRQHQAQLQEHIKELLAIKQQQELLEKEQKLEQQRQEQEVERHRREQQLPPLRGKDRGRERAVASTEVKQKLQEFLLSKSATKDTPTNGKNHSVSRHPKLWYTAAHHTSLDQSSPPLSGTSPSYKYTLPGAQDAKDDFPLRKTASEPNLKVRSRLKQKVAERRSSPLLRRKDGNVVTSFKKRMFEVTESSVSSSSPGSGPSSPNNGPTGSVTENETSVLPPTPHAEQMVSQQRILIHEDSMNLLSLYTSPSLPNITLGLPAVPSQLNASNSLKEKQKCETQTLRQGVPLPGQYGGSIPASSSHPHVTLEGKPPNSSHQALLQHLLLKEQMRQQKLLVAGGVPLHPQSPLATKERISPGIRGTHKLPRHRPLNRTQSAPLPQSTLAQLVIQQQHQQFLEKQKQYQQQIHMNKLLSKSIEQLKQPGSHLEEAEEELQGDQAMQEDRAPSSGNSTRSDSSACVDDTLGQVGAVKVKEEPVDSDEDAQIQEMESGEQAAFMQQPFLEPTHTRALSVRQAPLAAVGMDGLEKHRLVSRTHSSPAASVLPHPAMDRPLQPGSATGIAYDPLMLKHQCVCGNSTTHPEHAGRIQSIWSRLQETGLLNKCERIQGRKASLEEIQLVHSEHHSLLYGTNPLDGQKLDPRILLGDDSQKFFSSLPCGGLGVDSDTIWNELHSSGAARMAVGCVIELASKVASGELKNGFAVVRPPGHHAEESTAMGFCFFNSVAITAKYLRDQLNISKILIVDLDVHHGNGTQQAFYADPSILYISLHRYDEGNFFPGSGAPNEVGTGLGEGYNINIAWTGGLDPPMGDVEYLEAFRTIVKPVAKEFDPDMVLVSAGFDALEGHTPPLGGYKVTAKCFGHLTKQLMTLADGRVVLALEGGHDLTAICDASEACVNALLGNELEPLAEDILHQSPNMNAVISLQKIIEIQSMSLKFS
Sequence of Histone deacetylase 2 (Q92769 whole entry): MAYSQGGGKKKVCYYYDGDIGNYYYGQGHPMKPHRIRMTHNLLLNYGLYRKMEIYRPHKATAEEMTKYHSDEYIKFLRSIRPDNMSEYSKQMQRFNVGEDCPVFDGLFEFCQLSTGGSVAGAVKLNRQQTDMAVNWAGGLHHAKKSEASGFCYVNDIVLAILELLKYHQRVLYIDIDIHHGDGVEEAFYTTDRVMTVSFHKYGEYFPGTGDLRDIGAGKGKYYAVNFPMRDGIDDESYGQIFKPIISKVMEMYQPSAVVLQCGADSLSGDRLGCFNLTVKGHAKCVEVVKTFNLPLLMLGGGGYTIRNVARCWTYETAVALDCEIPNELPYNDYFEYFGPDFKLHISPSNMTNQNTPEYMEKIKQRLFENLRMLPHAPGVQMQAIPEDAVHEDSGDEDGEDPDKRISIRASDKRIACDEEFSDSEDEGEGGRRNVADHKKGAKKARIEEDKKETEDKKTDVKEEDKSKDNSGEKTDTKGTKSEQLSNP

Ratio IC50 (Homo sapiens [1]): 15 to 400
IC50 (Histone deacetylase 7): 1.1 µM
IC50 (Histone deacetylase 2): 2.2 µM
Ratio IC50 (Homo sapiens [2]): 15 to 400
IC50 (Histone deacetylase 1): 0.8 µM
IC50 (Histone deacetylase 8): 0.4 µM
IC50 (Histone deacetylase 9): 5.3 µM
IC50 (Histone deacetylase 5): 9.5 µM
Ratio IC50 (Homo sapiens [3]): 15 to 400
Ratio IC50 (Homo sapiens [4]): 15 to 400
IC50 (Histone deacetylase 3): 2.1 µM
Ratio IC50 (Homo sapiens [5]): 15 to 400
Ratio IC50 (Homo sapiens [6]): 15 to 400
Ratio IC50 (Homo sapiens [7]): 15 to 400
IC50 (Histone deacetylase 4): 2.2 µM
Ratio IC50 (Homo sapiens [8]): 15 to 400
IC50 (Histone deacetylase 11): 3.7 µM
Compound: O=C(NO)c1ccc(CN(CCO)C(=O)Cc2ccccc2)cc1
